How the values were obtained:
[1] = tested on: HEK293T cells; assay: In vitro LNP delivery of eGFP mRNA to adherent cells; format: cell-based; conditions: 0.125 μg eGFP mRNA per well, 24 hr, flow cytometry, LNP 41.44/45.85/10.0/2.7, lipid:RNA 40:1
Procedure: HEK293T cells were seeded in 96 well plates and grown to 70% confluence in DMEM+10% FBS] under a 5% CO2 atmosphere at 37° C. A 0.125 μg amount of 5′-CleanCap-eGFP mRNA (TriLink Biotech) formulated with LNP compositions comprising COMPOUNDS 1-4 as prepared in Example 3 at the following percentages in Table 10 was added to each well.
After incubating for 24 hr, cells were imaged for GFP expression with a Leica fluorescence microscope and then detached from 96 well plate to quantitate expression by flow cytometry.

[2] = tested on: Resting T-cells; assay: LNP delivery of eGFP mRNA to resting T-cells; format: cell-based; conditions: eGFP mRNA LNPs 0.4144:0.4585:0.1:0.027, lipid:nucleic acid 40:1, 0.5 ug mRNA per well, 24 hrs
Procedure: In one experiment, LNPs of the present disclosure comprising one of COMPOUNDS 1-4, DOPE, Cholesterol and DMG-PEG2000 at a molar ratio of 0.4144:0.4585:0.1:0.027 and further comprising Cleancap mRNA encoding eGFP were formed on a NanoAssemblr® (Precision Nanosystems). […] Resting T-cells were treated with varying amounts of the four LNP composition and at 24 hrs, the cells were analyzed to determine the percentage of cells that were viable and that expressed […]. The results of the analysis are shown in Table 12 for a dose of 0.5 ug mRNA per well.

[3] = tested on: BALB/C mice; assay: In vivo intramuscular LNP delivery of fLuciferase mRNA, bioluminescent imaging; conditions: for Avg IM flux n = 2 / Ave flux (p/s): intramuscular 20 μg fLuciferase mRNA; for Avg IM flux n = 2: right hind limb, BLI at 4 hr, LNP compound/DOPE/Cholesterol/DMG-PEG2000 33.5/32.0/33.5/1.0, lipid:RNA 25:1; for Ave flux (p/s): LNP COMPOUND 2/DOPE/Cholesterol/DMG-PEG2000 32.411/32.411/32.411/2.77
Procedure: (§1) Adult female BALB/C mice (n=2/group) were intramuscularly administered in the right hind limb of each mouse 20 μg of 5′-CleanCap-fLuciferase mRNA (TriLink Biotech) formulated with LNP composition comprising COMPOUND 2 as prepared according to Example 2 in the following percentages shown in Table 16:
The location and extent of luciferase expression in treated and untreated mice were determined at 4 hr and 24 hr by bioluminescent imaging (BLI) of anesthetized mice using an IVIS Lumina in vivo imaging system (Perkin Elmer) according to the manufacturer's instructions. Briefly, mice were anesthetized using isoflurane in oxygen, and placed supine on a heated stage. Mice were then administered D-luciferin (Perkin-Elmer #122799) IP, and BLI was performed.
as §1, with “In another experiment, adult female” for “Adult female”, “comprising one of COMPOUNDS 3-8” for “comprising COMPOUND 2”, “Example 3” for “Example 2”, “Table 18:” for “Table 16:”
The location and extent of luciferase expression in treated and untreated mice were determined at 4 hr by bioluminescent imaging (BLI) of anesthetized mice as described above.

[4] = tested on: HEK293T cells; assay: In vitro LNP delivery of nano-pB-EF1a-GFP DNA to adherent cells; format: cell-based; conditions: 0.5 μg nano-pB-EF1a-GFP DNA per well in LNPs, flow cytometry
Procedure: HEK293T cells were seeded in 96 well plates and grown to 70% confluence in [DMEM+10% FBS] under a 5% CO2 atmosphere at 37° C. A 0.5 μg amount of nano-pB-EF1a-GFP DNA formulated with LNP compositions comprising COMPOUNDS 1, 3 & 4 as prepared in Examples 3 and 8 was added to each well. Following treatment with the LNPs, the cells were imaged for GFP+expression with a Leica fluorescence microscope and then detached from 96 well plate to quantitate expression by flow cytometry.

[5] = tested on: Resting T-cells; assay: LNP delivery of nano-pB-EF1a-GFP DNA to resting T-cells; format: cell-based; conditions: nano-pB-EF1a-GFP DNA LNPs 0.38:0.5:0.1:0.02, lipid:nucleic acid 45:1, 24 hr
Description: The experiments described in this example used CD4/CD8 positive T-cells isolated from a leukapheresis product from a healthy donor.

[6] = Physical characterisation of mRNA-containing LNPs (DLS, NTA, zeta potential); format: physicochemical; conditions: Fluc mRNA LNPs: compound/DOPE/Cholesterol/DMG-PEG2000 41.44/45.85/10/2.7, lipid:RNA 40:1 (w/w)
Procedure: A series of ten multi-component LNP compositions of the present disclosure comprising exemplary compounds of Formula (I) was prepared by combining various percentages of an exemplary compound of Formula (I), the phospholipid DOPE, the structural lipid cholesterol (Chol) and 1,2-dimyristoyl-sn-glycerol methoxypolyethylene glycol (DMG-PEG2000; Avanti Polar Lipids, Alabaster, Alabama, USA).
Individual 25 mg/ml stock solutions were prepared by solubilizing the lipids in 200-proof HPLC-grade ethanol and stock solutions were stored at −80° C. until formulated. At the time of formulation, the lipid stock solutions were briefly allowed to equilibrate to room temp and then placed on a hot plate maintained at a temperature range of 50-55° C.
A 1 mg/mi solution of the desired mRNA to be incorporated into the LNPs was added to 150 mM sodium acetate buffer (pH 5.2) to form a stock solution and kept on ice. The lipid phase was mixed with the aqueous m RNA phase inside a microfluidic chip using a NanoAssemblr® instrument (Precision Nanosystems, Vancouver, BC, Canada) according to the manufacturer's instructions to form LNP compositions comprising encapsulated mRNAs.
The resultant mRNA LNP compositions were then transferred to a Repligen Float-A-Lyzer dialysis device—having a molecular weight cut off (MWCO) of 8-10 kDa (Spectrum Chemical Mfg. Corp, CA, USA) and processed by dialysis against phosphate buffered saline (PBS) (dialysate:dialysis buffer volume at least 1:200 v/v), pH 7.4 overnight at 4° C. (or alternatively room temperature for at least 4 hours), to remove the 25% ethanol and achieve a complete buffer exchange. In some experiments the LNPs were further concentrated by in an Amicon® Ultra-4 centrifugal filter unit, MWCO-30 kDa (Millipore Sigma, USA) spun at ˜4100×g in an ultracentrifuge. The mRNA LNPs were then stored at 4° C. until further use.
A series of multicomponent LNP compositions comprising one of COMPOUNDS 1-8 described in Example 1 and the mRNA encoding flue was prepared according to Example 2 and the physical characteristics of the resulting LNPs were analyzed.
In a separate experiment, LNP compositions of the present disclosure comprising mRNA encoding firefly luciferase (hereafter “Fluc”; TriLink) and COMPOUNDS 1-8 were prepared as described in Example 2 by combining one of COMPOUNDS 1-8, the phospholipid DOPE, the structural lipid cholesterol (Chol) and 1,2-dimyristoyl-sn-glycerol methoxypolyethylene glycol (DMG-PEG2000) in the percentages presented in Table 8: […]

[7] = Physical characterisation of DNA-containing LNPs (DLS, NTA, zeta potential); format: physicochemical; conditions: nano-pB-EF1a-GFP DNA LNPs: compound/DOPE/Cholesterol/DMG-PEG2000 38.0/50.0/10.0/2.0, lipid:DNA 45:1 (w/w)
Procedure: LNP compositions of the present disclosure comprising DNA, a nanoplasmid encoding a piggyBac transposon, wherein the piggyBac transposon comprised GFP under control of the EF1a promoter (herein referred to as the nano-pB-EF1a-GFP), and one of COMPOUNDS 1-8 were prepared as described in Example 3 by combining one of COMPOUNDS 1-8, the phospholipid DOPE, the structural lipid cholesterol (Chol) and 1,2-dimyristoyl-sn-glycerol methoxypolyethylene glycol (DMG-PEG2000) in the following percentages in Table 20: […]

[8] = tested on: TF1a cells; assay: Genetic modification of suspension cell line by LNP-delivered nanoplasmid transposon; format: cell-based; conditions: TF1a cells stably expressing SPB transposase; nanoplasmid transposon LNP 0.38:0.5:0.1:0.02; Day 6, flow cytometry
Procedure: In general, TF1a cells (a suspension cell line) were engineered to stably express the SPB transposase. Cell were plated at 5e5/ml. LNP comprising a nanoplasmid transposon coding for eGFP under control of the EF1a […] were added to each well at a concentration of […] (0.125 ug total) of DNA per well. Medium was exchanged and cells were split by spinning cells down in a v-bottom plate and resuspending cells in fresh RPMI+10% FBS+2 ug/ml Puromycin media on D4 post LNP addition). Day=6, cells were assessed for GFP expression by epifluorescence microscopy and flow cytometry.
For example, LNP compositions comprising COMPOUND 3 were prepared comprising COMPOUND 3, DOPE, Cholesterol and DMG-PEG2000 at a molar ratio of 0.38:0.5:0.1:0.02 and the nanoplasmid transposon and cells were assessed at Day 6 for GFP expression by epifluorescence microscopy and flow cytometry.

| Diameter (DLS; nm) [6] | Diameter (NTA; nm) [6] | PDI [6] | Total Particles/ml [6] | Zeta Potential (mV) [6] | Diameter (DLS; nm) [7] | Diameter (NTA; nm) [7] | PDI [7] | Zeta Potential (mV) [7] | Total Particles/ml [7] | Structure (SMILES) | % Viable GFP+ [1] | % Viable GFP+ [2] | Avg IM flux n = 2 [3] | % Viable GFP+ [4] | % Viable GFP+ [5] | other results |
| --- | --- | --- | --- | --- | --- | --- | --- | --- | --- | --- | --- | --- | --- | --- | --- | --- |
|  |  |  |  |  |  |  |  |  |  | CC(C)C(CCC1CCC(C(=O)NCCCCCCCCCCCCNC(=O)C2CCC(CCC(SCCN(C)C)C(C)C)C(SCCN(C)C)C2)CC1SCCN(C)C)SCCN(C)C (centres unmarked) [Compound 4] | 90.1% | 2.9% | 2.07E+6 | ~17.1% | 2.3% |  |
| 79.6 nm | 113.8 nm | 0.259 | 2.97E+10 Particles/ml | −0.19 mV | 80.6 nm | 105.0 nm | 0.221 | −0.02 mV |  | CC(C)C(CCC1CCC(C(=O)NCCCCCCNC(=O)C2CCC(CCC(SCCN(C)C)C(C)C)C(SCCN(C)C)C2)CC1SCCN(C)C)SCCN(C)C (centres unmarked) [Compound 2] | 17.5% | 5.5% |  |  | 4.4% | Ave flux (p/s) ([3]; Lipid:RNA 25:1, 4 hr): 4.58E+6 p/s; Ave flux (p/s) ([3]; Lipid:RNA 25:1, 24 hr): 3.53E+6 p/s; Ave flux (p/s) ([3]; Lipid:RNA 50:1, 4 hr): 9.67E+5 p/s; Ave flux (p/s) ([3]; Lipid:RNA 50:1, 24 hr): 8.09E+5 p/s; location of luciferase expression (BLI) ([3]; intramuscular 20 μg fLuciferase mRNA in right hind limb): detected by BLI predominantly at the injection site |
| 91.8 nm | 84.4 nm | 0.389 | 7.03E+10 Particles/ml | 0.18 mV | 82.0 nm | 85.8 nm | 0.168 | 0.21 mV | 2.31E+11 Particles/ml | CC(C)C(CCC(C)C(CCC1CCC(C(=O)NC2CCC(CC3CCC(NC(=O)C4CCC(CCC(SCCN(C)C)C(C)CCC(SCCN(C)C)C(C)C)C(SCCN(C)C)C4)CC3)CC2)CC1SCCN(C)C)SCCN(C)C)SCCN(C)C (centres unmarked) [Compound 5] |  |  | 2.12E+5 |  |  |  |
|  |  |  |  |  |  |  |  |  |  | CC(C)C(CCC(C)C(CCC1CCC(C(=O)NCCCCCCCCCCCCNC(=O)C2CCC(CCC(SCCN(C)C)C(C)CCC(SCCN(C)C)C(C)C)C(SCCN(C)C)C2)CC1SCCN(C)C)SCCN(C)C)SCCN(C)C (centres unmarked) [Compound 3] | 19.4% | 10.9% | 5.8E+6 | 97.1% | 18.0% | cells positive for GFP expression [8]: ~9.8% |
| 123.5 nm | 108.4 nm | 0.113 | 5.10E+10 Particles/ml | −0.29 mV | 110.2 nm | 90.8 nm | 0.224 | 0.96 mV | 5.52E+11 Particles/ml | CC(C)C(CCC(C)C(CCC1CC2C(=O)N(c3ccc(N4C(=O)C5CC(CCC(SCCN(C)C)C(C)CCC(SCCN(C)C)C(C)C)C(SCCN(C)C)CC5C4=O)cc3)C(=O)C2CC1SCCN(C)C)SCCN(C)C)SCCN(C)C (centres unmarked) [Compound 7] |  |  | 2.4E+5 |  |  |  |

Source: patent US12642870B2, “Compositions and methods for delivery of nucleic acids” (Poseida Therapeutics, Inc., priority 2020, dated 2026)
